Measurements reported in patent US10167262B2, “Herbicidal substituted 3-arylpyrazoles” (FMC CORPORATION, priority 2014, dated 2019).
Like-named read-outs stand apart in the source and are kept apart here.

What was measured:
Assay type in all cases: in vivo
[1] = test system: barnyardgrass (Echinochloa crus-galli); assay: Test A pre-/postemergence greenhouse herbicide test, visual injury rating 0-100; conditions: for pest or weed control at 1000 g/ha: Echinochloa crus-galli, 240 h, 1000 g ai/ha, read-out: Plant response rating (0 to 100 scale), Barnyardgrass
Summary of the method: (§1)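 Ratings are visual, 0 to 100 relative to untreated plants, taken approximately 10 days post-treatment in the greenhouse. Both preemergence soil and postemergence foliar routes were used with surfactant-containing non-phytotoxic solvent formulations.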

[2] = test system: corn (Zea mays); assay: as above; conditions: for plant injury at 1000 g/ha: Zea mays, 240 h, 1000 g ai/ha, read-out: Plant response rating (0 to 100 scale), Corn
Summary of the method: as §1

[3] = test system: giant foxtail (Setaria faberii); assay: as above; conditions: for pest or weed control at 1000 g/ha: Setaria faberi, 240 h, 1000 g ai/ha, read-out: Plant response rating (0 to 100 scale), Foxtail, Giant
Summary of the method: as §1

[4] = test system: large (Lg) crabgrass (Digitaria sanguinalis); assay: as above; conditions: for pest or weed control at 1000 g/ha: Digitaria sanguinalis, 240 h, 1000 g ai/ha, read-out: Plant response rating (0 to 100 scale), Crabgrass, Large
Summary of the method: as §1

[5] = test system: morningglory (Ipomoea spp.); assay: as above; conditions: for pest or weed control at 1000 g/ha: Ipomoea, 240 h, 1000 g ai/ha, read-out: Plant response rating (0 to 100 scale), Morningglory
Summary of the method: as §1

[6] = test system: pigweed (Amaranthus retroflexus); assay: as above; conditions: for pest or weed control at 1000 g/ha: Amaranthus retroflexus, 240 h, 1000 g ai/ha, read-out: Plant response rating (0 to 100 scale), Pigweed
Summary of the method: as §1

[7] = test system: velvetleaf (Abutilon theophrasti); assay: as above; conditions: for pest or weed control at 1000 g/ha: Abutilon theophrasti, 240 h, 1000 g ai/ha, read-out: Plant response rating (0 to 100 scale), Velvetleaf
Summary of the method: as §1

[8] = test system: wheat (Triticum aestivum); assay: as above; conditions: for plant injury at 1000 g/ha: Triticum aestivum, 240 h, 1000 g ai/ha, read-out: Plant response rating (0 to 100 scale), Wheat
Summary of the method: as §1

[9] = test system: blackgrass (Alopecurus myosuroides); assay: Test C pre-/postemergence greenhouse test, plant response rating 0-100
Summary of the method: (§2)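 Scores run from 0, no effect, to 100, complete control, assigned by eye after treated plants and controls spent 13 to 15 days in a greenhouse. Soil-applied treatment went onto freshly sown seed in loam and sand; foliar treatment hit seedlings at the 1- to 4-leaf stage.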

[10] = test system: ragweed (common ragweed, Ambrosia elatior); assay: as above
Summary of the method: as §2

[11] = test system: chickweed (common chickweed, Stellaria media); assay: Test C postemergence greenhouse test, plant response rating 0-100
Summary of the method: (§3)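 Postemergence spray onto 1–4-leaf potted seedlings, greenhouse incubation 13–15 days. Visual percent-control rating (0–100) against untreated plants.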

[12] = test system: kochia (Kochia scoparia); assay: as above
Summary of the method: as §3

[13] = test system: wild oat (Avena fatua); assay: as above
Summary of the method: as §3

[14] = Postemergence, 250 g ai/ha, scale 0 to 100

In the case of Clc1cc(Cl)cc(-c2n[nH]cc2C(=NN2CCCC2)c2ccccc2)c1 [Compound 30, N-[[3-(3,5-dichlorophenyl)-1H-pyrazol-4-yl]phenylmethylene]-1-pyrrolidinamine], the pest or weed control at 1000 g/ha ([1]; post-emergence, Postemergence) was 0%, the pest or weed control at 1000 g/ha ([1]; pre-emergence, Preemergence) was 0% and the plant injury at 1000 g/ha ([2]; post-emergence, Postemergence) was 0%. It also gave a plant injury at 1000 g/ha ([2]; pre-emergence, Preemergence) of 0%, a pest or weed control at 1000 g/ha ([3]; post-emergence, Postemergence) of 0% and a pest or weed control at 1000 g/ha ([3]; pre-emergence, Preemergence) of 0%. For the same compound, the pest or weed control at 1000 g/ha ([4]; post-emergence, Postemergence) was 0%, the pest or weed control at 1000 g/ha ([4]; pre-emergence, Preemergence) was 0% and the pest or weed control at 1000 g/ha ([5]; post-emergence, Postemergence) was 0%. For the same compound, the pest or weed control at 1000 g/ha ([5]; pre-emergence, Preemergence) was 0%, the pest or weed control at 1000 g/ha ([6]; post-emergence, Postemergence) was 100% and the pest or weed control at 1000 g/ha ([6]; pre-emergence, Preemergence) was 90%. For the same compound, the pest or weed control at 1000 g/ha ([7]; post-emergence, Postemergence) was 100%, the pest or weed control at 1000 g/ha ([7]; pre-emergence, Preemergence) was 0% and the plant injury at 1000 g/ha ([8]; post-emergence, Postemergence) was 0%. The plant injury at 1000 g/ha ([8]; pre-emergence, Preemergence) was 0%, the pest or weed control at 31 g/ha ([9]; Alopecurus myosuroides, post-emergence, Postemergence, 31 g ai/ha, read-out: Plant response rating (0 to 100), Blackgrass) was 0% and the pest or weed control at 62 g/ha ([9]; Alopecurus myosuroides, post-emergence, Postemergence, 62 g ai/ha, read-out: Plant response rating (0 to 100), Blackgrass) was 0%. The pest or weed control at 125 g/ha ([9]; Alopecurus myosuroides, post-emergence, Postemergence, 125 g ai/ha, scale 0 to 100, read-out: Plant response rating, Blackgrass) was 0%, the pest or weed control at 250 g/ha ([9]; Alopecurus myosuroides, post-emergence, Postemergence, 250 g ai/ha, scale 0 to 100) was 0% and the pest or weed control at 62 g/ha ([9]; Alopecurus myosuroides, pre-emergence, Preemergence, 62 g ai/ha, read-out: Plant response rating, Blackgrass) was 0%. For the same compound, the pest or weed control at 125 g/ha ([9]; Alopecurus myosuroides, pre-emergence, Preemergence, 125 g ai/ha, read-out: Plant response rating, Blackgrass) was 0%, the pest or weed control at 250 g/ha ([9]; Alopecurus myosuroides, pre-emergence, Preemergence, 250 g ai/ha) was 0% and the pest or weed control at 500 g/ha ([9]; Alopecurus myosuroides, pre-emergence, Preemergence, 500 g ai/ha) was 0%. It also gave a pest or weed control at 62 g/ha ([10]; Ambrosia artemisiifolia, post-emergence, Postemergence, 62 g ai/ha, read-out: Plant response rating (0 to 100), Ragweed) of 20%, a pest or weed control at 125 g/ha ([10]; Ambrosia artemisiifolia, post-emergence, Postemergence, 125 g ai/ha, read-out: Plant response rating (0 to 100), Ragweed) of 35% and a pest or weed control at 250 g/ha ([10]; Ambrosia artemisiifolia, post-emergence, Postemergence, 250 g ai/ha, scale 0 to 100) of 90%. It also gave a pest or weed control at 62 g/ha ([10]; Ambrosia artemisiifolia, pre-emergence, Preemergence, 62 g ai/ha, read-out: Plant response rating, Ragweed) of 50%, a pest or weed control at 250 g/ha ([10]; Ambrosia artemisiifolia, pre-emergence, Preemergence, 250 g ai/ha) of 75% and a pest or weed control at 500 g/ha ([10]; Ambrosia artemisiifolia, pre-emergence, Preemergence, 500 g ai/ha) of 100%. For the same compound, the pest or weed control at 31 g/ha ([11]; Stellaria media, post-emergence, 31 g ai/ha) was 100%, the pest or weed control at 62 g/ha ([11]; Stellaria media, post-emergence, 62 g ai/ha) was 100% and the pest or weed control at 125 g/ha ([11]; Stellaria media, post-emergence, 125 g ai/ha) was 100%. For the same compound, the pest or weed control at 250 g/ha ([11]; Stellaria media, post-emergence, 250 g ai/ha, scale 0 to 100) was 100%, the pest or weed control at 62 g/ha ([12]; Bassia scoparia, post-emergence, 62 g ai/ha) was 40% and the pest or weed control at 125 g/ha ([12]; Bassia scoparia, post-emergence, 125 g ai/ha) was 85%. It also gave a pest or weed control at 250 g/ha ([12]; Bassia scoparia, post-emergence, 250 g ai/ha, scale 0 to 100) of 98%, a pest or weed control at 62 g/ha ([13]; Avena fatua, post-emergence, 62 g ai/ha) of 0% and a pest or weed control at 125 g/ha ([13]; Avena fatua, post-emergence, 125 g ai/ha) of 0%. It also gave a pest or weed control at 250 g/ha ([13]; Avena fatua, post-emergence, 250 g ai/ha, scale 0 to 100) of 0%.

CCn1cc(C(=NN2CCCC2)c2ccccc2)c(-c2cc(Cl)cc(Cl)c2)n1 [Compound 37] was tested, and the “Plant response rating (0 to 100 scale), Barnyardgrass” value ([1]; Postemergence, 125 g ai/ha) was 0, the “Plant response rating (0 to 100 scale), Barnyardgrass” value ([1]; Postemergence, 500 g ai/ha) was 0 and the “Barnyardgrass plant response rating (0 = no effect, 100 = complete control)” value ([1]; Preemergence, 125 g ai/ha) was 0. The “Plant response rating (0 to 100 scale), Barnyardgrass” value ([1]; Preemergence, 500 g ai/ha) was 0, the “Plant response rating (0 to 100 scale), Corn” value ([2]; Postemergence, 125 g ai/ha) was 0 and the “Plant response rating (0 to 100 scale), Corn” value ([2]; Postemergence, 500 g ai/ha) was 0. The “Corn plant response rating (0 = no effect, 100 = complete control)” value ([2]; Preemergence, 125 g ai/ha) was 0, the “Plant response rating (0 to 100 scale), Corn” value ([2]; Preemergence, 500 g ai/ha) was 0 and the “Plant response rating (0 to 100 scale), Foxtail, Giant” value ([3]; Postemergence, 125 g ai/ha) was 0. For the same compound, the “Plant response rating (0 to 100 scale), Foxtail, Giant” value ([3]; Postemergence, 500 g ai/ha) was 0, the “Foxtail, Giant plant response rating (0 = no effect, 100 = complete control)” value ([3]; Preemergence, 125 g ai/ha) was 0 and the “Plant response rating (0 to 100 scale), Foxtail, Giant” value ([3]; Preemergence, 500 g ai/ha) was 0. The “Plant response rating (0 to 100 scale), Crabgrass, Large” value ([4]; Postemergence, 125 g ai/ha) was 0, the “Plant response rating (0 to 100 scale), Crabgrass, Large” value ([4]; Postemergence, 500 g ai/ha) was 0 and the “Crabgrass, Large plant response rating (0 = no effect, 100 = complete control)” value ([4]; Preemergence, 125 g ai/ha) was 0. The “Plant response rating (0 to 100 scale), Crabgrass, Large” value ([4]; Preemergence, 500 g ai/ha) was 0, the “Plant response rating (0 to 100 scale), Morningglory” value ([5]; Postemergence, 125 g ai/ha) was 0 and the “Plant response rating (0 to 100 scale), Morningglory” value ([5]; Postemergence, 500 g ai/ha) was 0. For the same compound, the “Morningglory plant response rating (0 = no effect, 100 = complete control)” value ([5]; Preemergence, 125 g ai/ha) was 0, the “Plant response rating (0 to 100 scale), Morningglory” value ([5]; Preemergence, 500 g ai/ha) was 0 and the “Plant response rating (0 to 100 scale), Pigweed” value ([6]; Postemergence, 125 g ai/ha) was 80. For the same compound, the “Plant response rating (0 to 100 scale), Pigweed” value ([6]; Postemergence, 500 g ai/ha) was 100, the “Pigweed plant response rating (0 = no effect, 100 = complete control)” value ([6]; Preemergence, 125 g ai/ha) was 40 and the “Plant response rating (0 to 100 scale), Pigweed” value ([6]; Preemergence, 500 g ai/ha) was 90. For the same compound, the “Plant response rating (0 to 100 scale), Velvetleaf” value ([7]; Postemergence, 125 g ai/ha) was 80, the “Plant response rating (0 to 100 scale), Velvetleaf” value ([7]; Postemergence, 500 g ai/ha) was 100 and the “Velvetleaf plant response rating (0 = no effect, 100 = complete control)” value ([7]; Preemergence, 125 g ai/ha) was 0. For the same compound, the “Plant response rating (0 to 100 scale), Velvetleaf” value ([7]; Preemergence, 500 g ai/ha) was 40, the “Plant response rating (0 to 100 scale), Wheat” value ([8]; Postemergence, 125 g ai/ha) was 0 and the “Plant response rating (0 to 100 scale), Wheat” value ([8]; Postemergence, 500 g ai/ha) was 0. The “Wheat plant response rating (0 = no effect, 100 = complete control)” value ([8]; Preemergence, 125 g ai/ha) was 0, the “Plant response rating (0 to 100 scale), Wheat” value ([8]; Preemergence, 500 g ai/ha) was 0 and the “Plant response rating (0 to 100), Blackgrass” value ([9]; Postemergence, 31 g ai/ha) was 0. The “Plant response rating (0 to 100), Blackgrass” value ([9]; Postemergence, 62 g ai/ha) was 0, the “Plant response rating (0 to 100), Blackgrass” value ([9]; Postemergence, 125 g ai/ha) was 0 and the “Plant response rating, Blackgrass” value [9, 14] was 0. The “Plant response rating (0 to 100), Ragweed” value ([10]; Postemergence, 62 g ai/ha) was 5, the “Plant response rating (0 to 100), Ragweed” value ([10]; Postemergence, 125 g ai/ha) was 5 and the “Plant response rating, Ragweed” value [10, 14] was 20. The “Plant response rating (0 to 100), Chickweed” value ([11]; 31 g ai/ha) was 70, the “Plant response rating (0 to 100), Chickweed” value ([11]; 125 g ai/ha) was 70 and the “Plant response rating, Chickweed” value ([11]; 250 g ai/ha, scale 0 to 100) was 75. For the same compound, the “Plant response rating (0 to 100), Kochia” value ([12]; 62 g ai/ha) was 15, the “Plant response rating (0 to 100), Kochia” value ([12]; 125 g ai/ha) was 15 and the “Plant response rating, Kochia” value ([12]; 250 g ai/ha, scale 0 to 100) was 35. The “Plant response rating (0 to 100), Oat, Wild” value ([13]; 62 g ai/ha) was 0, the “Plant response rating (0 to 100), Oat, Wild” value ([13]; 125 g ai/ha) was 0 and the “Plant response rating, Oat, Wild” value ([13]; 250 g ai/ha, scale 0 to 100) was 0.
